Measured values published in patent EP3290412A1, “HIV-1 NUCLEOCAPSID INHIBITORS” (Università degli Studi di Siena, priority 2016, dated 2018).
Where two headings read alike, the source gives them in different places.

Tests used:
NC(11-55) = NC(11-55) (Human immunodeficiency virus type 1, UniProt P12493); assay: NC inhibition assay (NC-induced cTAR DNA destabilization, fluorescence); assay type: biochemical, HIV-1; details: for inhibition at 100 µM: single point screening, positive = >25% inhibition at 100µM
Method in brief: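 Doubly labelled cTAR (0.1 µM, Alexa488/Dabcyl) pre-complexed with 1 µM Zn-loaded NC(11-55) for 15 min, then compound added for a further 15 min; run at 20 °C in Tris-HCl pH 7.5, 30 mM NaCl, 0.2 mM MgCl2. Fluorescence read at ex 480/em 520 nm. IC50 taken from dose-response fit of % inhibition of NC-induced fluorescence increase.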

[1] = test system: HIV-1 reference strain NL4-3; assay: BiCycle assay (MT-2 then TZM-bl cells); assay type: cell-based
Method in brief: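 MT-2 cells were infected with NL4-3 in the presence of five-fold compound dilutions. After 72 h, the supernatant was passed to TZM-bl cells. Two days later, luciferase luminescence was read and IC50 calculated, giving a readout that spans the whole replication cycle.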

[2] = Human immunodeficiency virus 1, NL43, TZM-bl, read-out: BiCycle IC50 nM
[3] = Human immunodeficiency virus 1, NL43, MT-2 cells 72 hours then TZM-bl cells two days, NL4-3, read-out: BiCycle IC50

With `CC(NC(=O)c1nc(-c2ccccn2)nc(O)c1O)C1CCCC1` (stereo not shown) [Compound 65, N-(1-cyclopentylethyl)-5,6-dihydroxy-2-(pyridin-2-yl)pyrimidine-4-carboxamide] the IC50 (NC(11-55)) was 47 µM, the inhibition at 100 µM (NC(11-55)) was > 25% and the IC50 [1, 2] was 330 nM.
With `COc1ccnc(-c2nc(O)c(O)c(C(=O)N[C@@H](C)C3CCCCC3)n2)c1` [Compound 69, N-[(1S)-1-cyclohexylethyl]-2-(4-methoxypyridin-2-yl)-5,6-bis(oxidanyl)pyrimidine-4-carboxamide] the IC50 (NC(11-55)) was 49 µM, the inhibition at 100 µM (NC(11-55)) was > 25% and the IC50 [1, 2] was 357 nM.
`C[C@@H](NC(=O)c1nc(-c2cc3ccccc3cn2)nc(O)c1O)C1CCCCC1` [Compound 25, (R)-N-(1-cyclohexylethyl)-5,6-dihydroxy-2-(isoquinolin-3-yl)pyrimidine-4-carboxamide] was tested, and the IC50 (NC(11-55)) was 3 µM, the inhibition at 100 µM (NC(11-55)) was > 25% and the IC50 [1, 2] was 32 nM.
For `CC1CCCC(NC(=O)c2nc(-c3ccccn3)nc(O)c2O)C1` (stereo not shown) [Compound 57, 5,6-dihydroxy-N-(3-methylcyclohexyl)-2-(pyridin-2-yl)pyrimidine-4-carboxamide], the IC50 (NC(11-55)) was 35.5 µM, the inhibition at 100 µM (NC(11-55)) was > 25% and the IC50 [1, 2] was 432 nM.
`C[C@@H](NC(=O)c1nc(-c2cccc(N)n2)nc(O)c1O)C1CCCCC1` [Compound 45, (R)-2-(6-aminopyridin-2-yl)-N-(1-cyclohexylethyl)-5,6-dihydroxypyrimidine-4-carboxamide] was tested, and the IC50 (NC(11-55)) was 30.5 µM, the inhibition at 100 µM (NC(11-55)) was > 25% and the IC50 [1, 2] was 1390 nM.
With `CC(OC(=O)c1nc(-c2ccccn2)nc(O)c1O)C1CCCCC1` (stereo not shown) [Compound 17, 1-cyclohexylethyl 5,6-dihydroxy-2-(pyridin-2-yl)pyrimidine-4-carboxylate] the IC50 (NC(11-55)) was 90 µM, the inhibition at 100 µM (NC(11-55)) was > 25% and the IC50 [1, 2] was 2030 nM.
With `C[C@@H](NC(=O)c1nc(-c2ncccc2Cl)nc(O)c1O)C1CCCCC1` [Compound 33, (R)-2-(3-chloropyridin-2-yl)-N-(1-cyclohexylethyl)-5,6-dihydroxypyrimidine-4-carboxamide] the IC50 (NC(11-55)) was 18 µM, the inhibition at 100 µM (NC(11-55)) was > 25% and the IC50 [1, 2] was 1220 nM.
For `CC1CCC(NC(=O)c2nc(-c3ccccn3)nc(O)c2O)CC1` (stereo not shown) [Compound 56, 5,6-dihydroxy-N-(4-methylcyclohexyl)-2-(pyridin-2-yl)pyrimidine-4-carboxamide], the IC50 (NC(11-55)) was 35 µM, the inhibition at 100 µM (NC(11-55)) was > 25% and the IC50 [1, 2] was 341 nM.
For `C[C@H](NC(=O)c1nc(-c2cc(Cl)ccn2)nc(O)c1O)C1CCCCC1` [Compound 78, (S)-2-(4-chloropyridin-2-yl)-N-(1-cyclohexylethyl)-5,6-dihydroxypyrimidine-4-carboxamide], the IC50 (NC(11-55)) was 18 µM, the inhibition at 100 µM (NC(11-55)) was > 25% and the IC50 [1, 2] was 285 nM.
For `CC(NC(=O)c1nc(-c2cc(Cl)ccn2)nc(O)c1O)C1CCC(F)(F)CC1` (stereo not shown) [Compound 87, 2-(4-chloropyridin-2-yl)-N-(1-(4,4-difluorocyclohexyl)ethyl)-5,6-dihydroxypyrimidine-4-carboxamide], the IC50 (NC(11-55)) was 41 µM, the inhibition at 100 µM (NC(11-55)) was > 25% and the IC50 [1, 2] was 1830 nM.
`O=C(NCCCC1CCCCC1)c1nc(-c2ccccn2)nc(O)c1O` [Compound 8, N-(3-cyclohexylpropyl)-5,6-dihydroxy-2-(pyridin-2-yl)pyrimidine-4-carboxamide] was tested, and the IC50 (NC(11-55)) was 27.5 µM, the inhibition at 100 µM (NC(11-55)) was > 25% and the IC50 [1, 2] was 518 nM.
With `C[C@@H](NC(=O)c1nc(-c2ccc(CN3CCCC3)cn2)nc(O)c1O)C1CCCCC1` [Compound 93, (R)-N-(1-cyclohexylethyl)-5,6-dihydroxy-2-(5-(pyrrolidin-1-ylmethyl)pyridin-2-yl)pyrimidine-4-carboxamide] the IC50 (NC(11-55)) was 50 µM, the inhibition at 100 µM (NC(11-55)) was > 25% and the IC50 [1, 2] was 1360 nM.
`C[C@@H](NC(=O)c1nc(-c2nc3ccccc3[nH]2)nc(O)c1O)C1CCCCC1` [Compound 29, (R)-2-(1H-benzo[d]imidazol-2-yl)-N-(1-cyclohexylethyl)-5,6-dihydroxypyrimidine-4-carboxamide] was tested, and the IC50 (NC(11-55)) was 2.5 µM, the inhibition at 100 µM (NC(11-55)) was > 25% and the IC50 [1, 2] was 1780 nM.
With `O=C(NCCC1CCCCC1)c1nc(-c2ccccn2)nc(O)c1O` [Compound 6, N-(2-cyclohexylethyl)-5,6-dihydroxy-2-(pyridin-2-yl)pyrimidine-4-carboxamide] the IC50 (NC(11-55)) was 37.5 µM, the inhibition at 100 µM (NC(11-55)) was > 25% and the IC50 [1, 2] was 2260 nM.
In the case of `Cc1ccc(-c2nc(O)c(O)c(C(=O)N[C@H](C)C3CCCCC3)n2)nc1C` [Compound 67, (R)-N-(1-cyclohexylethyl)-2-(,5,6-dimethylpyridin-2-yl)-5,6-dihydroxypyrimidine-4-carboxamide], the inhibition at 100 µM (NC(11-55)) is reported as > 25% and the IC50 [1, 3] is reported as 1340 nM.
`CCNCc1ccc(-c2nc(O)c(O)c(C(=O)N[C@H](C)C3CCCCC3)n2)nc1` [Compound 60, (R)-N-(1-cyclohexylethyl)-2-(5-((ethylamino)methyl)pyridin-2-yl)-5,6-dihydroxypyrimidine-4-carboxamide] was tested, and the IC50 (NC(11-55)) was 3.5 µM, the inhibition at 100 µM (NC(11-55)) was > 25% and the IC50 [1, 2] was 694 nM.
For `CC1(C)CCC(NC(=O)c2nc(-c3ccccn3)nc(O)c2O)CC1` [Compound 58, N-(4,4-dimethylcyclohexyl)-5,6-dihydroxy-2-(pyridin-2-yl)pyrimidine-4-carboxamide], the IC50 (NC(11-55)) was 23 µM, the inhibition at 100 µM (NC(11-55)) was > 25% and the IC50 [1, 2] was 268 nM.
In the case of `O=C(OCC1CCCCC1)c1nc(-c2ncccc2Cl)nc(O)c1O` [Compound 15, cyclohexylmethyl 2-(3-chloropyridin-2-yl)-5,6-dihydroxypyrimidine-4-carboxylate], the inhibition at 100 µM (NC(11-55)) is reported as > 25% and the IC50 [1, 3] is reported as 9660 nM.
`CCNS(=O)(=O)c1ccc(-c2nc(O)c(O)c(C(=O)N[C@H](C)C3CCCCC3)n2)nc1` [Compound 89, (R)-N-(1-cyclohexylethyl)-2-(5-(N-ethylsulfamoyl)pyridin-2-yl)-5,6-dihydroxypyrimidine-4-carboxamide] was tested, and the IC50 (NC(11-55)) was 28 µM, the inhibition at 100 µM (NC(11-55)) was > 25% and the IC50 [1, 2] was 10400 nM.
With `C[C@@H](NC(=O)c1nc(-c2ccc(NC(=O)OC(C)(C)C)cn2)nc(O)c1O)C1CCCCC1` [Compound 61, tert-butyl (R)-(6-(4-((1-cyclohexylethyl)carbamoyl)-5,6-dihydroxypyrimidin-2-yl)pyridin-3-yl)carbamate] the IC50 (NC(11-55); cTAR DNA 0.1 µM, 1 µM NC(11-55), 20 °C, pH 7.5, read-out: NC inhibition IC50) was 17 µM, the inhibition at 100 µM (NC(11-55)) was > 25% and the IC50 [1, 2] was 210 nM.
`O=C(NC1(C2CCCCC2)CC1)c1nc(-c2ccccn2)nc(O)c1O` [Compound 24, N-(1-cyclohexylcyclopropyl)-5,6-dihydroxy-2-(pyridin-2-yl)pyrimidine-4-carboxamide] was tested, and the IC50 (NC(11-55)) was 22.5 µM, the inhibition at 100 µM (NC(11-55)) was > 25% and the IC50 [1, 2] was 110 nM.
`O=C(OCCCC1CCCCC1)c1nc(-c2ccccn2)nc(O)c1O` [Compound 14, 3-cyclohexylpropyl 5,6-dihydroxy-2-(pyridin-2-yl)pyrimidine-4-carboxylate] was tested, and the IC50 (NC(11-55)) was 27.5 µM, the inhibition at 100 µM (NC(11-55)) was > 25% and the IC50 [1, 2] was 6830 nM.
For `O=C(NCC1CC1)c1nc(-c2ccccn2)nc(O)c1O` [Compound 3, N-(cyclopropylmethyl)-5,6-dihydroxy-2-(pyridin-2-yl)pyrimidine-4-carboxamide], the IC50 (NC(11-55)) was 390 µM, the inhibition at 100 µM (NC(11-55)) was > 25% and the IC50 [1, 2] was 1410 nM.
`CC(C)(CNC(=O)c1nc(-c2ccccn2)nc(O)c1O)C1CCCC1` [Compound 63, N-(2-cyclopentyl-2-methylpropyl)-5,6-dihydroxy-2-(pyridin-2-yl)pyrimidine-4-carboxamide] was tested, and the IC50 (NC(11-55)) was 7 µM, the inhibition at 100 µM (NC(11-55)) was > 25% and the IC50 [1, 2] was 125 nM.
With `Cc1ccc(-c2nc(O)c(O)c(C(=O)N[C@H](C)C3CCCCC3)n2)nc1` [Compound 41, (R)-N-(1-cyclohexylethyl)-5,6-dihydroxy-2-(5-methylpyridin-2-yl)pyrimidine-4-carboxamide] the inhibition at 100 µM (NC(11-55)) was > 25% and the IC50 [1, 3] was 298 nM.
`C[C@@H](NC(=O)c1nc(-c2cc(CCN)ccn2)nc(O)c1O)C1CCCCC1` [Compound 88, (R)-2-(4-(2-aminoethyl)pyridin-2-yl)-N-(1-cyclohexylethyl)-5,6-dihydroxypyrimidine-4-carboxamide] was tested, and the IC50 (NC(11-55)) was 7.5 µM, the inhibition at 100 µM (NC(11-55)) was > 25% and the IC50 [1, 2] was 12700 nM.
In the case of `C[C@H](CC1CCCCC1)NC(=O)c1nc(-c2ccccn2)nc(O)c1O` [Compound 64, (R)-N-(1-cyclohexylpropan-2-yl)-5,6-dihydroxy-2-(pyridin-2-yl)pyrimidine-4-carboxamide], the IC50 (NC(11-55)) is reported as 14.5 µM, the inhibition at 100 µM (NC(11-55)) is reported as > 25% and the IC50 [1, 2] is reported as 210 nM.
With `O=C(NCC1CCCCC1)c1nc(-c2ncccc2Cl)nc(O)c1O` [Compound 16, 2-(3-chloropyridin-2-yl)-N-(cyclohexylmethyl)-5,6-dihydroxypyrimidine-4-carboxamide] the inhibition at 100 µM (NC(11-55)) was > 25% and the IC50 [1, 3] was 2050 nM.
In the case of `C[C@H](NC(=O)c1nc(-c2ccccn2)nc(O)c1O)C1CCCCC1` [Compound 38, (S)-N-(1-cyclohexylethyl)-5,6-dihydroxy-2-(pyridin-2-yl)pyrimidine-4-carboxamide], the IC50 (NC(11-55)) is reported as 46.5 µM, the inhibition at 100 µM (NC(11-55)) is reported as > 25% and the IC50 [1, 2] is reported as 154 nM.
With `C[C@@H](NC(=O)c1nc(-c2cc(CCNCc3cccn3C)ccn2)nc(O)c1O)C1CCCCC1` [Compound 91, (R)-N-(1-cyclohexylethyl)-5,6-dihydroxy-2-(4-(2-(((1-methyl-1H-pyrrol-2-yl)methyl)amino)ethyl)pyridin-2-yl)pyrimidine-4-carboxamide] the IC50 (NC(11-55)) was 12 µM, the inhibition at 100 µM (NC(11-55)) was > 25% and the IC50 [1, 2] was 1100 nM.
With `C[C@@H](NC(=O)c1nc(-c2cc(OCc3ccccc3)ccn2)nc(O)c1O)C1CCCCC1` [Compound 35, (R)-2-(4-(benzyloxy)pyridin-2-yl)-N-(1-cyclohexylethyl)-5,6-dihydroxypyrimidine-4-carboxamide] the inhibition at 100 µM (NC(11-55)) was > 25% and the IC50 [1, 3] was 530 nM.
